The source of these data is ChEMBL document CHEMBL1140399, “Synthesis and evaluation of 3-anilino-quinoxalinones as glycogen phosphorylase inhibitors” (Bioorg Med Chem Lett, 2005).

Assay [1] has as its system Mus musculus. The experiment in a line: Blood glucose levels in mice was measured using glucometer after 0 hours of compound administration at 30 mg/kg body weight via oral gavage.
Assay [2] concerns Mus musculus. Description: Blood glucose levels in mice was measured using glucometer after 1 hours of compound administration at 30 mg/kg body weight via oral gavage.
Assay [3] relates to Mus musculus. Description: Blood glucose levels in mice was measured using glucometer after 2 hours of compound administration at 30 mg/kg body weight via oral gavage.
Assay [4] concerns Mus musculus. The experiment in a line: Blood glucose levels in mice was measured using glucometer after 4 hours of compound administration at 30 mg/kg body weight via oral gavage.
For assay [5], the system named is Mus musculus. Description: Blood glucose levels in mice was measured using glucometer after 8 hours of compound administration at 30 mg/kg body weight via oral gavage.

`CCn1c(=O)c(Nc2ccc(C(=O)NCc3cccs3)cc2)nc2ccccc21`: the Blood glucose level in the assay on Mus musculus [1] turned out to be 320.3; with Mus musculus [2], 349.1; in the assay on Mus musculus [3], 338.4; in the assay on Mus musculus [4], 383.3; in the assay with Mus musculus [5], 325.9.
Turning to `Cn1c(=O)c(Nc2ccc(C(=O)NCc3cccs3)cc2)nc2ccccc21`, the Blood glucose level was 334 in the assay on Mus musculus [1]; 306.4 with Mus musculus [2]; 351.3 in the assay on Mus musculus [3]; 313.3 in the assay with Mus musculus [4]; 224.9 in the assay with Mus musculus [5].
`Cn1c(=O)c(Nc2ccc(C(=O)NCc3cccs3)cc2)nc2cccnc21`: the Blood glucose level in the assay on Mus musculus [1] came to 357.4; in the assay with Mus musculus [2], 305.4; in the assay on Mus musculus [3] it was 356; in the assay on Mus musculus [4], 362.5; in the assay on Mus musculus [5], 328.4.
